These results are taken from patent US20140057915A1, “KINASE INHIBITORS” (TOPIVERT PHARMA LIMITED, priority 2012, published 2014).

The term IC50 denotes the concentration at which inhibition is half-maximal.

For one series, the target named is cSrc (Homo sapiens, UniProt P12931). The series is described as follows: c-Src enzyme inhibition (FRET). The format is biochemical. Particulars: Table 4a1. The method in brief:
(§1)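 Kinase activity is measured on a dual-labelled synthetic peptide by FRET. ATP is supplied as an 800 μM solution for c-Src and a 60 μM solution for Syk. Compound is tested at four added concentrations, 4 to 0.004 μg/mL.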

The target in another series is Syk (Homo sapiens, UniProt P43405). Briefly: Syk enzyme inhibition (FRET). It counts as biochemical. Particulars: Table 4a1. The method in brief: as §1
The target in a further series is GSK3α (Homo sapiens, UniProt P49840). The series is described as follows: GSK 3α enzyme inhibition (FRET), Method 1. The format is biochemical. Particulars: Table 4a1. The method in brief: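 GSK3α was preincubated with test compound for 2 hr at RT, then a FRET peptide substrate and ATP were added for 1 hr. Protease development for 1 hr cleaved only non-phosphorylated peptide, and phosphorylation was read as the coumarin/fluorescein emission ratio. Concentrations given are those of the added solutions: enzyme 500 ng/mL, peptide 8 μM, ATP 40 μM.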
GSK3α, sequence (P49840 whole entry): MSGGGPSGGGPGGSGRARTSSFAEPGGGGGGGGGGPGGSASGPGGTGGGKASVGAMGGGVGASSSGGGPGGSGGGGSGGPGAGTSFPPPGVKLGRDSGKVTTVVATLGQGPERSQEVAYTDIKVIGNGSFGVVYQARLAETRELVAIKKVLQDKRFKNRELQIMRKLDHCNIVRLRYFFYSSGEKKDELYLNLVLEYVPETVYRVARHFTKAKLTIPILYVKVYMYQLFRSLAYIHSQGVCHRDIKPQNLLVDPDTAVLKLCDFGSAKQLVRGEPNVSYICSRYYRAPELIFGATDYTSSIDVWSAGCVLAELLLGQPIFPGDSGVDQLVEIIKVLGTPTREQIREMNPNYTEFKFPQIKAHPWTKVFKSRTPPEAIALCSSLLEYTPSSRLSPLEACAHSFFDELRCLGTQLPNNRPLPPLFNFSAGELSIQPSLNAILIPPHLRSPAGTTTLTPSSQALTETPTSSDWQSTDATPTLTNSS

For series [1], the system named is TNFα release, d-U937 cells. The series is described as follows: LPS-induced TNFα release in d-U937 cells. The format is cell-based. Particulars: Homo sapiens, dU937; relative to 10 μg/mL BIRB796; Table 4c1; read-out: LPS Induced Release of Cytokine in d-U937 Cells, TNFα REC50. The method in brief:
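Sandwich ELISA quantifies cytokine in supernatants after 4 hr LPS challenge (0.1 μg/mL) of PMA-differentiated (100 ng/mL, 48–72 hr) U937 macrophages given compound 2 hr beforehand. REC50 derived from concentration-response curve, inhibition calculated relative to vehicle.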

In series [2] the test system is IL-8 release, d-U937 cells. Briefly: LPS-induced IL-8 release in d-U937 cells. It counts as cell-based. Particulars: Homo sapiens, dU937; Table 4c1; read-out: LPS Induced Release of Cytokine in d-U937 Cells, IL-8 IC50. The method in brief: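 IL-8 release after a 4 hr challenge with LPS (0.1 μg/mL, E. coli 0111:B4) following a 2 hr compound pretreatment. Cells were human U937 monocytes differentiated to macrophage-type with PMA 100 ng/mL for 48–72 hr. Relative 50% effective concentration derived from concentration–response data.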

The test system of series [3] is ICAM-1 expression, BEAS2B cells. The series is described as follows: Poly I:C-induced ICAM-1 expression in BEAS2B cells. Particulars: Homo sapiens, BEAS-2B; read-out: Poly IC induced ICAM1 in BEAS2B, IC50. It counts as cell-based. The method in brief:
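Cell-based ELISA for surface ICAM-1 in human BEAS2B cells 18 h after transfection with the RNA-virus mimic poly I:C (1 μg/mL, with Oligofectamine), compounds added 2 h beforehand. OD450–655 divided by Crystal Violet OD595 per well; percent inhibition relative to vehicle.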

The test system of a further series is d-U937 cells. Briefly: Cell viability: MTT assay. Particulars: 1 μg/mL. The format is cell-based, human. The method in brief:
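MTT reduction (1 h, DMSO solubilisation, A550) measured after compound treatment at 1 or 10 μg/mL of differentiated U937 cells for 4 h (5% FCS RPMI1640) or 24 h (10% FCS). Percentage viability loss computed relative to 0.5% DMSO vehicle, with increases tabulated as negative values.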
Background: Tetrazolium assays rely on reduction of a dye to a coloured formazan, in cell work by metabolically active cells.

cSrc, sequence (P12931 whole entry): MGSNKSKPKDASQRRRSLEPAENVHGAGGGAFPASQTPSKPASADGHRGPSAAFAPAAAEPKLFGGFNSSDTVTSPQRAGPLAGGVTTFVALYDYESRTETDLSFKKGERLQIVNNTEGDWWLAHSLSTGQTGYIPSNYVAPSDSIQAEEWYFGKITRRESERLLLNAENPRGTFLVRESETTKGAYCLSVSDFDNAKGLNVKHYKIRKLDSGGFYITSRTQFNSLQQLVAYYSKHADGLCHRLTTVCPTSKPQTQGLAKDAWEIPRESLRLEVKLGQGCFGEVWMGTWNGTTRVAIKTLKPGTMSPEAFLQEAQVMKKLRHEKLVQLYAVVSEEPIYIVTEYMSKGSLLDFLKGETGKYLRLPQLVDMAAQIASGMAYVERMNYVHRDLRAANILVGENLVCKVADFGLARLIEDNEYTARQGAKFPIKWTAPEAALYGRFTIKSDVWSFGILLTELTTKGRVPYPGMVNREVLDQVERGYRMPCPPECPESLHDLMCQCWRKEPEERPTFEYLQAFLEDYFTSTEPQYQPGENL

For the compound `COc1ccc(-n2nc(C(C)(C)C)cc2NC(=O)Nc2ccc(Oc3ccnc(Nc4cccc(C(=O)NCCN5CCOCC5)c4)n3)c3ccccc23)cc1` [Example 21, 3-((4-((4-(3-(3-(tert-butyl)-1-(4-methoxyphenyl)-1H-pyrazol-5-yl)ureido)naphthalen-1-yl)oxy)pyrimidin-2-yl)amino)-N-(2-morpholinoethyl)benzamide], the IC50 at cSrc turned out to be 5 nM; against Syk, 14 nM; on GSK3α, 356 nM; in series [2] it was 1.9 nM; in series [3] it was 0.8 nM. Moreover, the EC50 in series [1] came to 1.3 nM. Also, the “Cell viability at time point in d-U937 cells, 4 h” value in the series with d-U937 cells is “−ve (−ve and +ve indicate that the value is below and above respectively, the no significant effect threshold, defined as 30% inhibition at 1 μg/mL at the time point indicated)”. Further, the “Cell viability at time point in d-U937 cells, 24 h” value (“Cell viability at time point … 24 h” below) in the series on d-U937 cells is “−ve (−ve and +ve indicate that the value is below and above respectively, the no significant effect threshold, defined as 30% inhibition at 1 μg/mL at the time point indicated)”.

On to `Cc1ccc(-n2nc(C3(C)COC3)cc2NC(=O)Nc2ccc(Oc3ccnc(Nc4cccc(C(=O)NCCN5CCOCC5)c4)n3)c3ccccc23)cc1` [Example 22, 3-((4-((4-(3-(3-(3-methyloxetan-3-yl)-1-(p-tolyl)-1H-pyrazol-5-yl)ureido)naphthalen-1-yl)oxy)pyrimidin-2-yl)amino)-N-(2-morpholinoethyl)benzamide], for which the IC50 was less than 1 nM at cSrc; 292 nM against Syk; 930 nM against GSK3α; 1.3 nM in series [2]; 4.1 nM in series [3]. For the same compound, the EC50 in series [1] is 4.5 nM. In the series on d-U937 cells, the “Cell viability at time point in d-U937 cells, 4 h” value was “−ve (−ve and +ve indicate that the value is below and above respectively, the no significant effect threshold, defined as 30% inhibition at 1 μg/mL at the time point indicated)”. In addition, the “Cell viability at time point … 24 h” value in the series with d-U937 cells was “−ve (−ve and +ve indicate that the value is below and above respectively, the no significant effect threshold, defined as 30% inhibition at 1 μg/mL at the time point indicated)”.

Consider `Cc1csc(-n2nc(C(C)(C)C)cc2NC(=O)Nc2ccc(Oc3ccnc(Nc4cccc(C(=O)NCCN5CCOCC5)c4)n3)c3ccccc23)c1` [Example 24, 3-((4-((4-(3-(3-(tert-butyl)-1-(4-methylthiophen-2-yl)-1H-pyrazol-5-yl)ureido)naphthalen-1-yl)oxy)pyrimidin-2-yl)amino)-N-(2-morpholinoethyl)benzamide], for which the IC50 against cSrc was determined as 1 nM; against Syk it was 14 nM; against GSK3α it was 207 nM; in series [2] it was 0.3 nM; in series [3], 1 nM. Besides, the EC50 in series [1] is 1.4 nM. In the series with d-U937 cells, the “Cell viability at time point in d-U937 cells, 4 h” value is “−ve (−ve and +ve indicate that the value is below and above respectively, the no significant effect threshold, defined as 30% inhibition at 1 μg/mL at the time point indicated)”. The “Cell viability at time point … 24 h” value with d-U937 cells was “−ve (−ve and +ve indicate that the value is below and above respectively, the no significant effect threshold, defined as 30% inhibition at 1 μg/mL at the time point indicated)”.

As to `Cc1ccc(-n2nc(C(C)(C)C)cc2NC(=O)Nc2ccc(Oc3ccnc(Nc4cccc(C(=O)NCCN5CCN(C)CC5)c4)n3)c3ccccc23)cc1` [Example 25, 3-((4-((4-(3-(3-(tert-butyl)-1-(p-tolyl)-1H-pyrazol-5-yl)ureido)naphthalen-1-yl)oxy)pyrimidin-2-yl)amino)-N-(2-(4-methylpiperazin-1-yl)ethyl)benzamide], the half-maximal inhibitory concentration (IC50) was 4 nM against cSrc; greater than 1330 nM at Syk; 285 nM against GSK3α; 1.5 nM in series [2]; 1.9 nM in series [3]. Also, the EC50 in series [1] was determined as 0.6 nM. Moreover, the “Cell viability at time point in d-U937 cells, 4 h” value with d-U937 cells was “−ve (−ve and +ve indicate that the value is below and above respectively, the no significant effect threshold, defined as 30% inhibition at 1 μg/mL at the time point indicated)”. In addition, the “Cell viability at time point … 24 h” value in the series on d-U937 cells was “−ve (−ve and +ve indicate that the value is below and above respectively, the no significant effect threshold, defined as 30% inhibition at 1 μg/mL at the time point indicated)”.

For `Cc1ccc(-n2nc(C(C)(C)C)cc2NC(=O)Nc2ccc(Oc3ccnc(Nc4cccc(C(=O)N(C)C)c4)n3)c3ccccc23)cc1` [Example 26, 3-((4-((4-(3-(3-(tert-butyl)-1-(p-tolyl)-1H-pyrazol-5-yl)ureido)naphthalen-1-yl)oxy)pyrimidin-2-yl)amino)-N,N-dimethylbenzamide], the IC50 on cSrc came out at 6 nM; on Syk, 14 nM; against GSK3α, 390 nM; in series [2] it was 2.3 nM; in series [3], 11.1 nM. Moreover, the EC50 in series [1] was found to be 0.5 nM. The “Cell viability at time point in d-U937 cells, 4 h” value in the series with d-U937 cells is “−ve (−ve and +ve indicate that the value is below and above respectively, the no significant effect threshold, defined as 30% inhibition at 1 μg/mL at the time point indicated)”. In addition, the “Cell viability at time point … 24 h” value in the series with d-U937 cells was “−ve (−ve and +ve indicate that the value is below and above respectively, the no significant effect threshold, defined as 30% inhibition at 1 μg/mL at the time point indicated)”.

For `Cc1ccc(-n2nc(C(C)(C)C)cc2NC(=O)Nc2ccc(Oc3ccnc(Nc4cccc(C(=O)N5CCOCC5)c4)n3)c3ccccc23)cc1` [Example 27, 1-(3-(tert-butyl)-1-(p-tolyl)-1H-pyrazol-5-yl)-3-(4-((2-((3-(morpholine-4-carbonyl)phenyl)amino)pyrimidin-4-yl)oxy)naphthalen-1-yl)urea], the IC50 against cSrc amounted to 4 nM; against Syk, 39 nM; at GSK3α, 311 nM; in series [2], 4.1 nM; in series [3], 11.6 nM. Further, in series [1], the EC50 was found to be 1.4 nM. Also, the “Cell viability at time point in d-U937 cells, 4 h” value in the series on d-U937 cells was “−ve (−ve and +ve indicate that the value is below and above respectively, the no significant effect threshold, defined as 30% inhibition at 1 μg/mL at the time point indicated)”. Also, the “Cell viability at time point … 24 h” value with d-U937 cells is “−ve (−ve and +ve indicate that the value is below and above respectively, the no significant effect threshold, defined as 30% inhibition at 1 μg/mL at the time point indicated)”.

For `COc1ccc(C(=O)NCCN(C)C)cc1Nc1nccc(Oc2ccc(NC(=O)Nc3cc(C(C)C)nn3-c3ccc(C)cc3)c3ccccc23)n1` [Example 28, N-(2-(dimethylamino)ethyl)-3-((4-((4-(3-(3-isopropyl-1-(p-tolyl)-1H-pyrazol-5-yl)ureido)naphthalen-1-yl)oxy)pyrimidin-2-yl)amino)-4-methoxybenzamide], the IC50 at cSrc is less than 1 nM; against Syk, 54 nM; at GSK3α, greater than 14000 nM; in series [2] it was 32.4 nM; in series [3], 140 nM. In series [1], the EC50 was found to be 2.2 nM. In addition, in the series with d-U937 cells, the “Cell viability at time point in d-U937 cells, 4 h” value was “−ve (−ve and +ve indicate that the value is below and above respectively, the no significant effect threshold, defined as 30% inhibition at 1 μg/mL at the time point indicated)”. In addition, the “Cell viability at time point … 24 h” value in the series on d-U937 cells is “−ve (−ve and +ve indicate that the value is below and above respectively, the no significant effect threshold, defined as 30% inhibition at 1 μg/mL at the time point indicated)”.

Turning to `COc1ccc(C(=O)NCCN2CCOCC2)cc1Nc1nccc(Oc2ccc(NC(=O)Nc3cc(C(C)(C)C)nn3-c3ccc(C)cc3)c3ccccc23)n1` [Example 31, 3-((4-((4-(3-(3-(tert-butyl)-1-(p-tolyl)-1H-pyrazol-5-yl)ureido)naphthalen-1-yl)oxy)pyrimidin-2-yl)amino)-4-methoxy-N-(2-morpholinoethyl)benzamide], the IC50 against cSrc was 3 nM; against Syk, 51 nM; at GSK3α, 9630 nM; in series [2], 7.1 nM; in series [3] it was 12 nM. For the same compound, the EC50 in series [1] turned out to be 2.8 nM. The “Cell viability at time point in d-U937 cells, 4 h” value in the series with d-U937 cells was “−ve (−ve and +ve indicate that the value is below and above respectively, the no significant effect threshold, defined as 30% inhibition at 1 μg/mL at the time point indicated)”. The “Cell viability at time point … 24 h” value with d-U937 cells is “−ve (−ve and +ve indicate that the value is below and above respectively, the no significant effect threshold, defined as 30% inhibition at 1 μg/mL at the time point indicated)”.
